Source: paper PMC6367500, “18β-glycyrrhetyl-3-O-sulfate would be a causative agent of licorice-induced pseudoaldosteronism” (Scientific Reports, 2019)

How the values were obtained:
[1] = Concentrations of GL metabolites in plasma of a patient with pseudoaldosteronism (LC-MS/MS); type: in vivo, human
Source text: The patient was a person who had taken a Kampo formula containing licorice for 3 years (1.5 g of licorice for 1 year and 2 months, and 3 g for 1 year and 10 months). On day 0, we found a low plasma potassium level (2.1 mEq/l) and a high creatinine kinase level (364 U/l). Since low plasma renin activity and a low aldosterone level were also found, the patient was diagnosed with pseudoaldosteronism due to licorice. The administration of the Kampo formula was stopped and potassium supplementation of up to 100 mEq/day was started. In the plasma collected on day 0, we detected compound 3 at 8.6 µM, GA at 1.3 µM, and 2 at 87 nM, while 1, GL and 3MGA were not detected. On day 5, the plasma potassium level was still 2.1 mEq/l and potassium supplementation was continued. However, the plasma concentrations of 3 and GA had decreased to 3.6 µM and 0.65 µM, respectively. 2, 1, GL, and 3MGA were not detected. On day 13, the plasma potassium level was increased to 2.8 mEq/l, and the concentrations of 3 and GA were 61 nM and 11 nM, respectively. On day 14, the plasma potassium level was 3.4 mEq/l, and the concentration of 3 was 57 nM; GA was not detected. On day 18, the plasma potassium level had recovered to a normal level (4.9 mEq/l), so potassium supplementation was stopped.
Female SD rats or EHBRs (9-week-old) were anesthetized by an intraperitoneal (i.p.) injection of urethane (1 g/kg) and their jugular veins were exposed. GA suspended in 0.5% CMC was then administered orally (200 mg/kg) to the unconscious rats, and blood samples were collected from the jugular vein; urine samples were collected using a metabolic cage at an appropriate time over a 12-h period. […] Feces were homogenized in phosphate-buffered saline (PBS; 0.15 M, pH 7.2), centrifuged (1.2 × 10^4 g, 10 min), and the supernatants were collected. After 1 week as a washout period, female SD rats were anesthetized by an i.p. injection of urethane (1 g/kg) and their biliary tract was cannulated. GA (0.2 mg/kg) was injected into the jugular vein, and the bile was collected every hour for 4 h. Aliquots (10 µl) of plasma, urine, homogenate of feces, or bile were mixed with 20 µl of subtilisin (0.91 U/ml) and incubated at 37 °C for 30 min, followed by the addition of 70 µl of astragaloside IV solution (1 µg/ml in ethanol containing 0.5% formic acid, used as internal standard), and kept at −20 °C for 30 min. […] The transitions (precursor to daughter) monitored and retention times were as follows: ESI(+) 743.4 to 567.5 m/z for compound 1 (5.5 min), ESI(−) 565.5 to 96.5 m/z for 2 (6.2 min), ESI(−) 549.5 to 96.5 m/z for 3 (8.1 min), ESI(+) 647.6 to 453.6 m/z for 3MGA (9.2 min), ESI(+) 471.3 to 91.0 m/z for GA (8.8 min), ESI(+) 823.5 to 453.6 m/z for GL (10.8 min), and ESI(+) 785.4 to 143.0 m/z for astragaloside IV (3.0 min). Linear regressions over the concentration range of 32 nM to 20 µM for each compound were examined using the peak-area ratio of the compounds to their internal standards and the least-squares method (r^2 > 0.98).
The patient was a person. They provided written informed consent to the use of their blood and urine samples for this study, which was approved by the Independent Ethics Committee of Kameda General Hospital, in accordance with the Declaration of Helsinki. Their anamnesis was follows: hypertension, systemic lupus erythematosus, and antiphospholipid antibody syndrome (for 15 years), necrotic pulmonary aspergillosis (6 years ago), cerebral infarction (14 and 4 years ago, two times), and stomach cancer (3 years ago). After the operation for stomach cancer, the patient had been treated with Kracie Juzentaihoto Extract Granules for Ethical Use (Kracie Pharmaceuticals., Tokyo, Japan). […]

anti-3MGA-mAb [2] = experiment: Competitive ELISA using anti-3MGA-mAb; type: binding; conditions: specificity to 3MGA calibrated to 100%, n = 1
Method: (§1) Figure 5 Dot-blot analysis and ELISA detection range of GL metabolites using anti-3MGA-monoclonal antibody (mAb). GL metabolites (1 µg each) were spotted on a PES membrane, and colored using an anti-3MGA-mAb (A). Competitive ELISA using anti-3MGA-mAb for GL metabolites was performed. Data are represented from a single analysis (n = 1) (B). […] Data are represented as mean ± S.D. (n = 3). Two-way ANOVA indicated a significant difference between GA and 3 (F1,36 = 4441, P < 0.001), concentrations (F8,36 = 315, P < 0.001), and their interactions (F8,36 = 281, P < 0.001). The calibrated line for the absorbance-concentration profile of 3 was calculated by the linear least-squares method, and the regression formula is shown in graph (C).
When the specificity of the mAb to 3MGA was calibrated to 100%, the cross-reactivity for GL, GA, 1, 2, and 3 was 0.23%, 2.2%, 4.8%, 4.0%, and 23%, respectively. […] We confirmed the selectivity of the anti-3MGA-mAb in discriminating between 3 and GA and established the detectable measurement range for 3 in this ELISA system.
3MGA-HSA (1 µg/ml in 50 mM carbonate buffer, pH 9.6) was added into a 96-well plate (Nagel Nunc, Penfield, NY, USA) (100 µl in a well) and incubated at 37 °C for 1 h. After the removal of 3MGA-HSA, the wells were washed three times with T-PBS (200 µl in a well). The wells were incubated with 300 µl in a well of 5% skim milk at 4 °C overnight. After the wells had been washed with T-PBS three times, the sample solution diluted with Can Get Signal® Solution 1 (Toyobo Co., Ltd., Osaka, Japan) (50 µl in a well) and anti-3MGA-mAb (1:4,000 dilution with Can Get Signal® Solution 1) (50 µl in a well) were added to the wells, and the plate was incubated at 37 °C for 1 h. After the wells had been washed with T-PBS three times, HRP-labeled goat anti-mouse IgG (Fc specific) antibody (Sigma, 1:20,000 dilution with Can Get Signal® Solution 2) was added into the wells (100 µl in a well) and the plate was incubated at 37 °C for 1 h. Next, the wells were washed with T-PBS three times and the substrate solution (3,3′,5,5′-tetramethylbensidine, TMB solution; Fujifilm Wako Pure Chemical Corporation, Osaka, Japan) was added to the wells (100 µl in a well), followed by incubation at room temperature for 5 min. Then, the stop solution (0.5 M sulfuric acid) was added to the wells (100 µl in a well) and the optical density was measured at 450 nm/630 nm.

anti-3MGA-mAb [3] = experiment: Dot-blot analysis using anti-3MGA-mAb; type: binding; conditions: 1 µg spotted on PES membrane, imaging analysis
Method: We confirmed the cross-reactivity of anti-3MGA-mAb against these GL metabolites. GL, GA, 3MGA, and compounds 1, 2, and 3 (1 µg each) were spotted on a polyethersulfone (PES) membrane, fixed onto the membrane, and colored using an anti-3MGA-mAb (Fig. 5A). […] Thus, the anti-3MGA-mAb cross-reacted to some extent with other metabolites of GL.
as §1
Anti-3MGA-mAb and 3MGA-human serum albumin (HSA)-conjugate were developed by the same protocols established in our previous studies[22],[23]. GL, GA, 3MGA, 1, 2, and 3 (1 µg each) were spotted on a Mustang^TM E positively charged PES membrane (Pall Co., East Hills, NY, USA). The membrane was then immersed into 0.1 M MES buffer (pH 4.7) containing 2% EDC and 1% NHS, and kept at room temperature for 1 h to activate the carboxyl group. After washing with distilled water, PBS containing 1% bovine serum albumin (BSA) was added to the membrane, which was shaken at room temperature for 2 h for fixation. Next, the membrane was blocked with PBS containing 5% skim milk (Morinaga-milk, Tokyo, Japan) and 0.1% Tween 20 at 4 °C overnight to reduce nonspecific adsorption. After washing twice with PBS containing 0.1% Tween 20 (T-PBS) for 5 min, the membrane was incubated with anti-3MGA-mAb and kept at room temperature for 3 h with constant agitation. The membrane was then washed twice with T-PBS for 5 min and treated with 1:500 diluted horseradish peroxidase (HRP)-labeled goat anti-mouse IgG (whole molecule; Sigma, St. Louis, MO, USA) antibody in T-PBS for 1 h with gentle shaking. Finally, the membrane was washed twice with T-PBS and once with PBS, and exposed to 1 mg/ml of freshly prepared 4-chloro-1-naphthol-0.03% H2O2 in PBS for 15 min at room temperature. The reaction was stopped by washing with distilled water, and the immunostained PES membrane was allowed to dry and then photographed. The positively stained areas were measured using Image J 1.46r (http://imageJ.nih.gov/ij).

plasma concentration, day 0 ([1]; patient with licorice-induced pseudoaldosteronism, day 0): not detected | plasma concentration, day 5 ([1]; patient, 5 days after stopping the Kampo formula): not detected
Structure (SMILES): CC1(C)[C@@H](O[C@H]2O[C@H](C(=O)O)[C@@H](O)[C@H](O)[C@H]2O[C@@H]2O[C@H](C(=O)O)[C@@H](O)[C@H](O)[C@H]2O)CC[C@]2(C)[C@H]3C(=O)C=C4[C@@H]5C[C@@](C)(C(=O)O)CC[C@]5(C)CC[C@@]4(C)[C@]3(C)CC[C@@H]12 [GL, glycyrrhizin, reference compound]
cross-reactivity of anti-3MGA-mAb (anti-3MGA-mAb [2]): 0.23% | area of positive staining in dot-blot (anti-3MGA-mAb [3]): not detectable
